Tests used:
[1] = oral, steady state after 6 weeks of medication, patients on long-term medication; cited from earlier work
[2] = In vitro release of Levothyroxin-Natrium from tablets, paddle apparatus; type: physicochemical; conditions: tablets of 50, 100, 150, 200 µg, 100 rpm, 500 ml phosphate buffer pH 7,4, data only in Fig. 1-4
Source text: Die folgenden in vitro Untersuchungen der erfindungsgemäß hergestellten Tabletten belegen, dass der Wirkstoff Levothyroxin-Natrium aus den Tabletten der unterschiedlichen Dosierungen in gleicher Geschwindigkeit und […] Ausmaß freigesetzt und somit dem Körper zur Verfügung gestellt werden kann. Die Untersuchungen zur Freisetzung wurden mit den Tabletten gemäß den Beispielen 2 und 3 durchgeführt. In den Figuren 1 bis 4 ist die jeweilige Freisetzung dargestellt. An […] % angegeben, an […] Zeit aufgetragen. Die Balken geben den Vertrauensbereich des […] von Levothyroxin-Natrium aus Tabletten (50 μg), Tablettenmasse 52 mg, Paddle-Apparatur, 100 rpm, […]: 500 ml Phosphatpuffer pH 7,4; • Fig. 2: Freisetzung von Levothyroxin-Natrium aus Tabletten (100 μg), Tablettenmasse 104 mg, Paddle-Apparatur, 100 rpm, […]: 500 ml Phosphatpuffer pH 7, 4; • Fig. 3: Freisetzung von Levothyroxin-Natrium aus Tabletten (150 μg), Tablettenmasse 156 mg, Paddle-Apparatur, 100 rpm, […]: 500 ml Phosphatpuffer pH 7,4 und • Fig. 4: Freisetzung von Levothyroxin-Natrium aus Tabletten (200 μg), Tablettenmasse 208 mg, Paddle-Apparatur, 100 rpm, […]: 500 ml Phosphatpuffer pH 7,4.

[3] = Bioavailability studies of levothyroxine sodium tablets of different strengths (pharmacokinetic parameters, dose linearity); type: in vivo; conditions: tablets of 50, 100, 150 and 200 µg made from one base formulation, oral
Protocol: Die ermittelten pharmakokinetischen Parameter der in vivo geprüften 50, 100, 150 und 200 µg Levothyroxin-Natrium enthaltenden Tabletten sind in Tabelle 1 aufgeführt.

SMILES	Kinetik (L-Thyroxin-Serumkonzentration, AUC 0 x 24, Cmax, Ctrough) [1]	Freisetzung von Levothyroxin-Natrium aus Tabletten [2]	Dosislinearität [3]
N[C@@H](Cc1cc(I)c(Oc2cc(I)c(O)c(I)c2)c(I)c1)C(=O)O [L-Thyroxin]	nicht-linearen Kinetik	–	–
N[C@@H](Cc1cc(I)c(Oc2cc(I)c(O)c(I)c2)c(I)c1)C(=O)O [Levothyroxin-Natrium]	–	in gleicher Geschwindigkeit und gleichem Ausmaß freigesetzt	klare Dosislinearität

Reference: EP1408948B1, “THYROID THERAPEUTIC AGENT COMPRISING PARTIAL GLYCERIDES AND DEXTRINE” (BERLIN-CHEMIE Aktiengesellschaft, priority 2001, dated 2003)
